Results on two compounds are retold here after patent US12594265B2, “Methods and compositions for inhibition of STAT3” (Ohio State Innovation Foundation, priority 2017, dated 2026).

Entries after “also recorded” stand apart in the source; their conditions may differ. Read-outs that look alike come from different tables or passages of the source.

Data set [1] relates to IL-17 production in myelin-specific CD4 T cells. Put plainly: Inhibition of IL-17 production in myelin-specific CD4 T cells (splenocytes activated with MBP Ac1-11 plus TGF-β and IL-6; flow cytometry, ELISA). The following applies: 3 days; for suppression of IL-17 production in myelin-specific CD4 T cells (in words): in vitro; for suppression of IL-17 production: murine myelin-specific CD4 T cells. In kind it is cell-based, mice. How it is done: In vitro culture of splenocytes from TCR transgenic mice. Splenocytes were prepared from naïve 5-10-wk-old Vα2.3/Vβ8.2 TCR transgenic mice and cultured in 24-well plates at […] with irradiated B10.PL splenocytes (6×10^8 cells/well). Cells were activated with of MBP Ac1-11 (10 μg/ml) and different combination of cytokines or neutralizing antibodies for cytokines to differentiate effector T helper cells. Cytokines and antibody concentrations were as follows: 0.5 ng/ml IL-12, 25 ng/ml IL-6, 1 ng/ml TGFβ1, 2 μg/ml anti-IFNγ, 1 μg/ml anti-IL-12, 2 μg/ml anti-IL-4, and 0.35 μg/ml anti-TGFβ (Yang, Weiner et al. 2009).
ELISA Assay. ELISA was performed to detect the expression of IL-17 and IFNγ in supernatant. Purified anti-mouse IL-17 primary antibody (BD bioscience) was diluted in 0.1 M NaHCO3 (pH 8.2) at 2 μg/ml while purified anti-mouse IFNγ primary antibody was diluted in 0.1M NaHCO3 (pH 9.5) at 2 μg/ml. Immunolon II plates (Dynatech Laboratories) were coated with 50 μl of primary antibodies per well and incubated overnight at 4° C. The plates were washed twice with PBS/0.05% Tween 20. The plates were blocked with 200 μl of 1% BSA in PBS per well for 2 h. The plates were washed twice with PBS/0.05% Tween 20, and 100 μl of supernatants were added in duplicate. The plates were incubated over-night at 4° C. and washed four times with PBS/0.05% Tween 20. Biotinylated rat anti-mouse secondary antibody (BD bioscience) were diluted in PBS/1% BSA, 100 μl of 1 μg/ml biotinylated antibody was added to each well, and plates were incubated at room temperature for 1 h. The plates were washed six times with PBS/0.05% Tween 20, and 100 μl avidin-peroxidase was added at 2.5 μg/ml and incubated for 30 min. The plates were washed eight times with PBS/0.05% Tween 20, and 100 μl ABTS substrate containing 0.03% H2O2 (for IL-17) or TMB substrate (for IFNγ) was added to each well. The plate was monitored for 10-20 min for color development and read at A 405. A standard curve was generated from cytokine standard, and the cytokine concentration in the samples was calculated.
Intracellular staining and flow cytometric analysis. Flow cytometric analysis was performed to evaluate the expression of surface markers and T-bet in CD4 T cells, as previously described (Yang, Weiner et al. 2009). Briefly, splenocytes were activated with antigen or αCD3/CD28 for 48 to 72 hours. Cells were then collected, washed, and resuspended in staining buffer (1% BSA in PBS). The cells were incubated with mAbs to the cell-surface markers for 30 min at 4° C. After washing twice with staining buffer, cells were fixed and permeabilized using Cytofix/Cytoperm solution for 20 min at 4° C. […] 80,000-100,000 live cell events were acquired on a FACSCanto (BD) and analyzed using FlowJo software (Tree Star, Inc.). […]

The nature of a further data set: in vivo. On the set-up: species or system mice.
Data set [2] concerns pSTAT3 in myelin-specific CD4 T cells. The data set is described as follows: pSTAT3 levels in myelin-specific CD4 T cells (intracellular flow cytometry). Format: cell-based, mice. The settings on record: 0.250 μM; MBP Ac1-11 and IL-6 activation. The protocol:
Intracellular staining and flow cytometric analysis. Flow cytometric analysis was performed to evaluate the expression of surface markers and T-bet in CD4 T cells, as previously described (Yang, Weiner et al. 2009). Briefly, splenocytes were activated with antigen or αCD3/CD28 for 48 to 72 hours. Cells were then collected, washed, and resuspended in staining buffer (1% BSA in PBS). The cells were incubated with mAbs to the cell-surface markers for 30 min at 4° C. After washing twice with staining buffer, cells were fixed and permeabilized using Cytofix/Cytoperm solution for 20 min at 4° C. Cells were stained for intracellular cytokines and T-bet for 30 min at 4° C. 80,000-100,000 live cell events were acquired on a FACSCanto (BD) and analyzed using FlowJo software (Tree Star, Inc.). PerCP-anti-CD4, and Pacific Blue-anti-CD44 were purchased from BD. PE-anti-PD-1, PE-Cy7-anti-IL-7Rα and Pacific Blue-anti-T-bet were purchased from Biolegend Biotechnology, Inc.
LLL12b suppresses pSTAT3 expression and IL-17 production in myelin-specific CD4 T cells in a dose-dependent manner. LLL21b was further tested to assess suppression of pSTAT3 expression in myelin-specific CD4 T cells. FIGS. 7A-7B show representative data for the effect of a representative disclosed compound, LLL12b, on IL-17 production, pSTAT3 levels, and cell viability under various conditions. […]

[3] abbreviates: mouse, in vivo, mice, Intravenous 2 mg/kg.
The mark [4] stands for this setting: mouse, in vivo, mice, Oral 8 mg/kg.

For the compound `NS(=O)(=O)c1cccc2c1C(=O)c1cccc(O)c1C2=O` [LLL12], the “suppression of IL-17 production in myelin-specific CD4 T cells (in words)” value in data set [1] is “inhibition of IL-17”. Further, in “in vivo” (mouse, in vivo), the Tmax lay in the range of 5 to 10 min and the time until cleared was ~60 min. Besides, in the data set “in vivo” (mouse, in vivo, ip, 20 mg/kg), the AUC worked out at 0.431 µM·h, the AUC(0-inf) came out at 0.438 µM·h, the Cmax amounted to 922 nM and the Tmax stood at 10 min. Moreover, the bioavailability in the data set “in vivo” (mouse, in vivo, ip, 20 mg/kg) came to 29.1%. Moreover, in “in vivo” (mouse, in vivo, iv, 5 mg/kg), the AUC was 0.373 µM·h, the AUC(0-inf) stood at 0.377 µM·h, the Cmax came to 978 nM and the Tmax was found to be 10 min. Moreover, the bioavailability in “in vivo” (mouse, in vivo, iv, 5 mg/kg) turned out to be 100%. The time until cleared entry in “in vivo” (mouse, in vivo, po) was “about 30 minutes”. In “in vivo” (mouse, in vivo, po, 20 mg/kg), the area under the curve (AUC) amounted to 0.0407 µM·h, the Cmax amounted to 176 nM, the Tmax worked out at 4.98 min and the bioavailability was determined as 2.73%.

In the case of `CN(C)C(=O)Oc1cccc2c1C(=O)c1cccc(S(N)(=O)=O)c1C2=O` [LLL12b], the “suppression of IL-17 production” value in data set [1] (0.25 μM) was 44%; in data set [1] (0.50 μM), 72%. Besides, in data set [1], the “suppression of IL-17 production in myelin-specific CD4 T cells (in words)” value was “significantly suppress IL-17 production; also recorded: inhibits myelin-specific IL-17 production in a dose-dependent manner”. Further, in data set [2], the pSTAT3 expression entry is “notably suppresses pSTAT3 expression”. Moreover, the “duration of sustained effective concentration” value in the data set “in vivo” (mice, IV) is “about 4 hours”; in the data set “in vivo” (mice, PO), “about 8 hours”. The AUC(0-t) in “in vivo” (setting [3]) is 892 ± 131 ng·h/mL; in “in vivo” (setting [4]) it was 1360 ± 396 ng·h/mL. For the same compound, the Vd in the data set “in vivo” (setting [3]) is 12.4 ± 2.89 L/kg. This compound also gave a clearance in “in vivo” (setting [3]) of 36.5 mL/min/kg. The half-life was 233 ± 27 min in the data set “in vivo” (setting [3]) and 461 ± 115 min in “in vivo” (setting [4]). For the same compound, the Cmax was 2880 ± 935 ng/mL in the data set “in vivo” (mouse, in vivo, mice, Intravenous 2 mg/kg, read-out: Co/Cmax) and 278 ± 93 ng/mL in the data set “in vivo” (mouse, in vivo, mice, Oral 8 mg/kg, read-out: Co/Cmax). Further, the Tmax in “in vivo” (mouse, in vivo, mice, Oral 8 mg/kg, read-out: Tmax) turned out to be 11.4 ± 5.4 min. Further, in the data set “in vivo” (mouse, in vivo, mice, printed in the Intravenous 2 mg/kg column, read-out: F (relative bioavailability)), the bioavailability is 38%.
